These results are taken from patent US6380218B1, “Nicotinamide derivatives” (Pfizer Inc, priority 1997, dated 2002).

Series [1] addresses human recombinant PDE4A (Homo sapiens, UniProt P27815). Kind of series: Hydrolysis of 1 uM cAMP by human recombinant PDE4A. The series is classed as biochemical. To be noted: for IC50: human recombinant PDE4A, 1 uM cAMP, read-out: Isozyme - IC50, A; for Enantiomer (+) vs. (−), PDE4A: potency of (+) relative to (−) enantiomer. Here is the method:
(§1) To assess pharmacologically which PDE4 isozyme(s) is responsible for eosinophil activation, we have prepared enantiomers of PDE4 inhibitors and compare the inhibitory effect of these enantiomers on PDE activity and eosinophil activation. PDE4 activity is assessed by measuring hydrolysis of 1 uM cAMP by individual human recombinant PDE4 isozymes (PDE4A, 4B, 4C or 4D). Eosinophil activation is estimated by measuring Sephadex beads-induced release of eosinophil derived neurotoxin (EDN) and leukotriene E4 in human whole blood. Table 1 illustrates comparison of one example of (−) and (+) enantiomers on the activity of individual PDE4 isozymes and on the release of END and LTE4.

The test system of series [2] is eosinophil derived neurotoxin (EDN) release, human whole blood eosinophils. Kind of series: Sephadex beads-induced EDN release in human whole blood (eosinophil degranulation). The series is classed as cell-based. To be noted: for IC50: Homo sapiens, Eosinophil, read-out: HWB Eosinophil IC30 or IC50, EDN; for Enantiomer (+) vs. (−), EDN: potency of (+) relative to (−) enantiomer, human whole blood. The procedure:
(§2) Inhibition of Eosinophil Degranulation and Activation in Human Whole Blood
(§3) Human Blood Eosinophil Degranulation and Activation Measurement
(§4) Blood Collection and Compound Incubation
(§5) One hundred ml blood is obtained from normal volunteers in Vacutainer tube #6480 (14.3 USP units sodium heparin/ml blood). Heparinized blood is pooled in 50 ml conical centrifuge tubes at 22° C. On ml blood is placed in a 12×75 mm siliconized glass tube containing 1 ul DMSO or 1 ul test compound in triplicate. After mixing, tubes are placed in a shaking water bath at 37° C. for 15 minutes. One ul PGE1 in DMSO is added to all tubes to give a final concentration of 1 uM. After mixing, 100 ul PBS (negative control) or Sephadex G-15 beads in PBS (8.25-16.5 mg/ml final concentration) is added to tubes. After mixing, all tubes are incubated in a shaking water bath at 37° C. for 1-2 hours.
(§6) Preparation of Plasma Samples
(§7) At the end of incubation, 20 ul of 15% EDTA in PBS is added to each assay tube. After mixing, the samples are centrifuged at 2,000 rpm (Sorvall 6000B centrifuge) at 22° C. for 5 minutes.
(§8) EDN (or EPX) and LTE4 Measurements and the Effect of Compounds
(§9) All plasma samples are tested for EDN (eosinophil derived neurotoxin) and LTE4 (leukotriene E4) levels. […] The levels of EDN and LTE4 are determined by a RIA (Kabi Pharmacia Diagnostics) and EIA (Cayman Chemical), respectively. EDN and LTE4 levels are calculated by comparison to a standard curve using Microsoft Excel or other appropriate software. Percent of control EDN or LTE4 release is calculated by:
% Control EDN=[EDN(compound)−EDN(blank)]/[EDN(total)−EDN(blank)]
(§10) where the blank is the level of EDN or LTE4 in the absence of Sephadex beads and the total is the level of EDN or LTE4 in the presence of Sephadex beads. An IC30 or IC50 value is defined as the concentration of a compound that inhibits specific EDN or LTE 4 release by 30 or 50%, respectively.
as §1

Series [3] has as its target human recombinant PDE4B (Homo sapiens, UniProt Q07343). The series can be described thus: Hydrolysis of 1 uM cAMP by human recombinant PDE4B. The series is classed as biochemical. Particulars: for IC50: human recombinant PDE4B, 1 uM cAMP, read-out: Isozyme - IC50, B; for Enantiomer (+) vs. (−), PDE4B: potency of (+) relative to (−) enantiomer. The procedure: as §1
Series [4] addresses human recombinant PDE4D (Homo sapiens, UniProt Q08499). The series can be described thus: Hydrolysis of 1 uM cAMP by human recombinant PDE4D. The class given is biochemical. To be noted: for IC50: human recombinant PDE4D, 1 uM cAMP, read-out: Isozyme - IC50, 4D; for Enantiomer (+) vs. (−), PDE4D: potency of (+) relative to (−) enantiomer. The procedure: as §1
Series [5] deals with human recombinant PDE4C (Homo sapiens, UniProt Q08493). Kind of series: Hydrolysis of 1 uM cAMP by human recombinant PDE4C. The series is classed as biochemical. To be noted: for IC50: human recombinant PDE4C, 1 uM cAMP, read-out: Isozyme - IC50, C; for Enantiomer (+) vs. (−), PDE4C: potency of (+) relative to (−) enantiomer. Here is the method:
as §1

Series [6] has as its system leukotriene E4 (LTE4) release, human whole blood eosinophils. Kind of series: Sephadex beads-induced LTE4 release in human whole blood (eosinophil activation). The series is classed as cell-based. Particulars: for IC50: Eosinophil, Sephadex beads, head does not say whether IC30 or IC50, read-out: HWB Eosinophil IC30 or IC50, LTE4; for Enantiomer (+) vs. (−), LTE4: potency of (+) relative to (−) enantiomer. Here is the method: as §2, §3, §4, §5, §6, §7, §8, §9
% Control LTE4=[LTE4(compound)−LTE4(blank)]/[LTE4(total)−LTE4(blank)]
as §10, §1

Chain of human recombinant PDE4B (Q07343 whole entry): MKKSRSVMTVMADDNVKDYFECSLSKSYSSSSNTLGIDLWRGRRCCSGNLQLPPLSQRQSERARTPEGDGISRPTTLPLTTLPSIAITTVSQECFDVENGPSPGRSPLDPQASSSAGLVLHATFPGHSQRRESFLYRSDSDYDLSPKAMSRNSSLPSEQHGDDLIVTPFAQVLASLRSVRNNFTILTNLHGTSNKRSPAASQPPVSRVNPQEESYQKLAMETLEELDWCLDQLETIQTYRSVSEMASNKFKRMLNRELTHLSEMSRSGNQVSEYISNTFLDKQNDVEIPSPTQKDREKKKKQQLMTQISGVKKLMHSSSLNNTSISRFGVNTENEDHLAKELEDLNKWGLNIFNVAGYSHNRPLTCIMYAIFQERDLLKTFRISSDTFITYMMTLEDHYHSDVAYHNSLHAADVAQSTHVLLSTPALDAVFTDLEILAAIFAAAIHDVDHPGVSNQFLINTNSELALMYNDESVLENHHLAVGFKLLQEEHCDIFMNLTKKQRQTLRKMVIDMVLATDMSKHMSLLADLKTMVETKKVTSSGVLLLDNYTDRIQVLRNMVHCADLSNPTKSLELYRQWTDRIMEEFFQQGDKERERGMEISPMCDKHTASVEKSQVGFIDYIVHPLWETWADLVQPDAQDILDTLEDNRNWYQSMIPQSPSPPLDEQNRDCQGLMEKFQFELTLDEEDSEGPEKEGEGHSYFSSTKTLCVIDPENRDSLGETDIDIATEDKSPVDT
Chain of human recombinant PDE4D (Q08499 whole entry): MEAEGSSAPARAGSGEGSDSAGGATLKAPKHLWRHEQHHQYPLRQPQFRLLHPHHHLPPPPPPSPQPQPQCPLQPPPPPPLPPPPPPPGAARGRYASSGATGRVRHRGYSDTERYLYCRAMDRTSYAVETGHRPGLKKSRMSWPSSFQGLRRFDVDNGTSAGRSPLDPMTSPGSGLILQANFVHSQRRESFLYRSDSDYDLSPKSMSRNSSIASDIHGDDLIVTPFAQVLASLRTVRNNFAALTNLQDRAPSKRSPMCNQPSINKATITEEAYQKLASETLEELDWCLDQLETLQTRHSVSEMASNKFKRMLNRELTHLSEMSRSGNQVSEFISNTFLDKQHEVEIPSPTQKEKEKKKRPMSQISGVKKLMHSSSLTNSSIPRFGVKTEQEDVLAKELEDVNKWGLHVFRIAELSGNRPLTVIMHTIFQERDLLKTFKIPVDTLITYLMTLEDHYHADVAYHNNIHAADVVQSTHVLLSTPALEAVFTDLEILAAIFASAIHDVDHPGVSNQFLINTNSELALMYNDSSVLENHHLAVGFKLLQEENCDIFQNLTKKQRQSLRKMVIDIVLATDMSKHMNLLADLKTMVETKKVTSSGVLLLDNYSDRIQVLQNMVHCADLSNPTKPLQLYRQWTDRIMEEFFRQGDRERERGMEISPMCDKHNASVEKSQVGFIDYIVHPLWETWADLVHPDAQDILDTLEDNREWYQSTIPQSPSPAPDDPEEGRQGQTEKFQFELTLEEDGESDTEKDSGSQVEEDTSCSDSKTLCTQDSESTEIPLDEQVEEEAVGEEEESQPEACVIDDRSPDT
Chain of human recombinant PDE4A (P27815 whole entry): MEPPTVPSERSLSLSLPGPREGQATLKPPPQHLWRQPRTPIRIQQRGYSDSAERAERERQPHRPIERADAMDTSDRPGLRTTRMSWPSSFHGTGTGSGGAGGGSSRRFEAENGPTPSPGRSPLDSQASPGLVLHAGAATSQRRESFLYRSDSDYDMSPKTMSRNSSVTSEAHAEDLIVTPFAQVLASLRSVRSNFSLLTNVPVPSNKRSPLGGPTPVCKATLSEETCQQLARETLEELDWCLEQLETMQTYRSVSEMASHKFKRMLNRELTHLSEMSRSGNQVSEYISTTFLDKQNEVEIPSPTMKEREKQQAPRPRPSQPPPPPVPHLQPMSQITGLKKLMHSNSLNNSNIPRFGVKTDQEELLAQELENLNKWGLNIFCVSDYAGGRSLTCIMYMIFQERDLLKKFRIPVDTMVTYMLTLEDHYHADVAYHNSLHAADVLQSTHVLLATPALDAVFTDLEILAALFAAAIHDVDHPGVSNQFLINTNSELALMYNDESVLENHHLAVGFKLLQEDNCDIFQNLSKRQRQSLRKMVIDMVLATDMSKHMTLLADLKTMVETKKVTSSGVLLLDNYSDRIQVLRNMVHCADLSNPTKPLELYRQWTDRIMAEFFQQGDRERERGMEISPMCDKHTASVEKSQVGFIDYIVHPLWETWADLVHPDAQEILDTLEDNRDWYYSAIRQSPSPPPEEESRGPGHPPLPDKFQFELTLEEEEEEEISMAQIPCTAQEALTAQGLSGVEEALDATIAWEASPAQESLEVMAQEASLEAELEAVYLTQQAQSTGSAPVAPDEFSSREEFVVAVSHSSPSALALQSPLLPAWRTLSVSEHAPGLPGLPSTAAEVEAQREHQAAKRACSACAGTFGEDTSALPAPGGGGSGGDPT
Chain of human recombinant PDE4C (Q08493 whole entry): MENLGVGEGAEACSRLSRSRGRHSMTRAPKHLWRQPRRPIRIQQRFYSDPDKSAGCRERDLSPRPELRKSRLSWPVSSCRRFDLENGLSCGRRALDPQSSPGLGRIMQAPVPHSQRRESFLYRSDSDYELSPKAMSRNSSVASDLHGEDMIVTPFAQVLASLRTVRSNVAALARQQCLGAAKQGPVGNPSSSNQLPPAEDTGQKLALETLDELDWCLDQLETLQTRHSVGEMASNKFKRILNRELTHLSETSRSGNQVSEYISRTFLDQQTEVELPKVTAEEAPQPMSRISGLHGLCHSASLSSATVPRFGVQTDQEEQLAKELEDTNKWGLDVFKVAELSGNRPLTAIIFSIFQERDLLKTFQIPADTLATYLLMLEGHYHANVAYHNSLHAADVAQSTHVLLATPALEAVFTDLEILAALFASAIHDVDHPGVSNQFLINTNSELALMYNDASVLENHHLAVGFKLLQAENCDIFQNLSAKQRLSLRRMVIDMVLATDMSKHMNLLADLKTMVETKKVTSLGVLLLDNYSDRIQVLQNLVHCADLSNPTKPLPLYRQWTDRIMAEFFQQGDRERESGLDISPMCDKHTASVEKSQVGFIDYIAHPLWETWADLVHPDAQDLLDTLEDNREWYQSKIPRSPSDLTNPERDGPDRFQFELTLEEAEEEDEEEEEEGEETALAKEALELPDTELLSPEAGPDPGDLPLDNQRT

In the case of `COc1ccc([C@H](C)NC(=O)c2cccnc2Oc2ccc(F)cc2)cc1` [(+) Enantiomer, (S)-(+) 2-(4-Fluoro-phenoxy)-N-[1-(4-methoxy-phenyl)-ethyl]-nicotinamide], in series [1], the concentration for half-maximal inhibition (IC50) (usually the concentration that gives 50% inhibition) was 600 nM and the “Enantiomer (+) vs. (−), PDE4A” value is recorded as “approximately equipotent”. Moreover, in series [2], the half-maximal inhibitory concentration (IC50) was found to be 50 nM and the “Enantiomer (+) vs. (−), EDN” value is reported as 20-37 X. In series [3], the IC50 came to 600 nM and the “Enantiomer (+) vs. (−), PDE4B” value is listed as “approximately equipotent”. In series [4], the IC50 worked out at 9 nM and the “Enantiomer (+) vs. (−), PDE4D” value was 22 X. Moreover, in series [5], the half-inhibitory concentration (IC50) was determined as 800 nM and the “Enantiomer (+) vs. (−), PDE4C” value is “approximately equipotent”. Moreover, in series [6], the concentration for half-maximal inhibition (IC50) was found to be 8 nM and the “Enantiomer (+) vs. (−), LTE4” value is reported as 20-37 X.
As to `COc1ccc([C@@H](C)NC(=O)c2cccnc2Oc2ccc(F)cc2)cc1` [(−) Enantiomer, (R)(−)2-(4-Fluoro-phenoxy)-N-[1-(4-methoxy-phenyl)-ethyl]-nicotinamide], the IC50 was found to be 600 nM in series [1]; 1000 nM in series [2]; 300 nM in series [3]; 200 nM in series [4]; 400 nM in series [5]; 300 nM in series [6].
`O=C(NCc1c(F)cc(F)cc1F)c1cccnc1Oc1ccc(F)cc1` [Example 67, 2-(4-Fluoro-phenoxy)-N-(2,4,6-trifluoro-benzyl)-nicotinamide]: the melting point (as a rule, the temperature of the solid-liquid transition) lay within 128 to 130 °C.
Compound `CC(C)(O)c1ccc(CNC(=O)c2cccnc2Oc2cccc(C#N)c2)cc1` [Example 113, 2-(3-Cyano-phenoxy)-N-[4-(1-hydroxy-1-methyl-ethyl)-benzyl]-nicotinamide] showed a melting point of 97 to 99 °C.
Compound `COc1cccc(Oc2ncccc2C(=O)NCc2ccc(C(C)(C)O)cc2)c1` [Example 201, N-[4-(1-Hydroxy-1-methyl-ethyl)-benzyl]-2-(3-methoxy-phenoxy)-nicotinamide] registered a melting point of 69 to 71 °C.
The same measure, in the same setting: to `CC(C)(O)c1sc(CNC(=O)c2cccnc2Oc2ccc(F)cc2)cc1Cl` [Example 81, N-[4-Chloro-5-(1-hydroxy-1-methyl-ethyl]-thiophen-2-ylmethyl]-2-(4-fluoro-phenoxy)-nicotinamide] belongs 115 to 117 °C; to `NS(=O)(=O)N1CCC(CNC(=O)c2cccnc2Oc2cccnc2)CC1` [Example 179, 2-(Pyridin-3-yloxy)-N-(1-sulfamoyl-piperidin-4-ylmethyl)-nicotinamide], 165 to 166 °C; to `CC(=O)c1cccc(Oc2ncccc2NC(=O)Cc2ccc(C(C)(C)O)cc2)c1` [Example 213, N-[2-(3-Acetyl-phenoxy)-pyridin-3-yl]-2-[4-(1-hydroxy-1-methyl-ethyl)-phenyl]-acetamide], 85 to 87 °C.
Regarding “(S)-(+) 2-(4-Fluoro-phenoxy)-N-[1-(4-methoxy-phenyl)-ethyl]-nicotinamide [(+) Enantiomer]”, in series [1], the “Enantiomer (+) vs. (−), PDE4A” value is on record as “.s”. In series [2], the “Enantiomer (+) vs. (−), EDN” value came to 20X. For the same compound, the “Enantiomer (+) vs. (−), PDE4B” value in series [3] is recorded as “.5X”. The “Enantiomer (+) vs. (−), PDE4D” value in series [4] was determined as 22X. In addition, in series [5], the “Enantiomer (+) vs. (−), PDE4C” value stood at 0.5X. In series [6], the “Enantiomer (+) vs. (−), LTE4” value is on record as 37X.
Consider `CC(NC(=O)c1cccnc1Oc1ccc(F)cc1)c1ccc(Cl)s1` (single isomer, unassigned; (+)) [Example 141, (+)-N-[1-(5-Chloro-thiophen-2-yl)-ethyl]-2-(4-fluoro-phenoxy)-nicotinamide], for which the melting point was 78 to 80 °C.
On the same count and under the same terms, to `CC(C)(O)c1cc(Cl)c(CNC(=O)c2cccnc2Oc2cncc(Cl)c2)s1` [Example 60, N-[3-Chloro-5-(1-hydroxy-1-methyl-ethyl)-thiophen-2-ylmethyl]-2-(5-chloro-pyridin-3-yloxy)-nicotinamide] belongs 72 to 74 °C.
The same measure, in the same setting: under `CC(C)(C)c1cc(CNC(=O)c2cccnc2Oc2ccc(F)cc2)cc(C(C)(C)C)c1O` [Example 76, N-[3,5-Di-tert-butyl-4-hydroxy-benzyl)-2-(4-fluoro-phenoxyl)nicotinamide] stands 45 to 47 °C; under `O=C(NCc1ccc(OC(F)F)cc1)c1cccnc1Oc1cccnc1` [Example 27, N-(4-Difluoromethoxy-benzyl)-2-(pyridin-3-yloxy)-nicotinamide], 91 to 93 °C; under `O=C(NCc1ccc(N2CCCCC2)cc1)c1cccnc1Oc1ccc(F)cc1` [Example 90, 2-(4-Fluoro-phenoxy)-N-(4-piperidin-1-yl-benzyl)-nicotinamide], 118 to 119 °C.
On the same count and under the same terms, to `COc1cccc(Oc2ncccc2C(=O)NCc2ccccc2Cl)c1` [Example 283, N-(2-Chloro-benzyl)-2-(3-methoxy-phenoxy)-nicotinamide] belongs 71 to 74 °C.
As for `CC(C)(O)C1CCC(CNC(=O)c2cccnc2Oc2cccc(C#N)c2)CC1` (stereo not drawn) [Example 214, 2-(3-Cyano-phenoxy)-N-[4-(1-hydroxy-1-methyl-ethyl)-cyclohexylmethyl]-nicotinamide], the melting point fell in the range of 129 to 130 °C.
Still for that read-out and setting: to `Nc1cccc(Oc2ncccc2C(=O)NCc2ccccc2Cl)c1` [Example 144, 2-(3-Amino-phenoxy)-N-(2-chloro-benzyl)-nicotinamide] belongs 101 to 103 °C; to `CC(=O)Nc1cccc(Oc2ncccc2C(=O)NCc2ccc(C(C)(C)O)cc2)c1` [Example 126, 2(3-Acetylamino-phenoxy)-N-[4-(1-hydroxy-1-methyl-ethyl)-benzyl]-nicotinamide], 155 to 157 °C; to `O=C(CCc1ccccc1)c1cccnc1Oc1cccnc1` [Example 257, 3-Phenyl-1-[2-(pyridin-3-yloxy)-pyridin-3-yl]-propan-1-one], 45 to 46 °C.
The compound `Cc1cc(CNC(=O)c2cccnc2Oc2ccc(F)cc2)cc(C)c1O` [Example 78, 2-(4-Fluoro-phenoxy)-N-(4-hydroxy-3,5-dimethyl-benzyl)-nicotinamide] came in with a melting point of 142 to 144 °C.
The same measure, in the same setting: under `O=C(NCc1ccc(Cl)o1)c1cccnc1Oc1ccc(F)cc1` [Example 63, N-(5-Chloro-furan-2-ylmethyl)-2-(4-fluoro-phenoxy)-nicotinamide] stands 116 to 118 °C.
